Data published in US11413328B2, “Methods for treating inflammatory conditions of the lungs” (priority 2016, dated 2022).
Bridges are numbered along the chain shown (N, C = ends). Where no end group is shown, it is not given here.

Assays:
[1] = system: murine house dust mite driven model of allergic asthma; assay: Lung resistance and compliance, prophylactic treatment in HDM asthma model (Example 9); assay type: in vivo, BALB/c mice
Method: (§1) Female 7-10 weeks old BALB/c mice were randomly allocated into 5 study groups one day prior to study start and subcutaneously (SC) sensitized to house dust mite (100 μg HDM in 200 μL saline plus Freund's complete adjuvant in 0.9% saline). The mice were treated with hBD-2 orally and intranasally respectively at a dose of 1.2 mg/kg/day (0.4 mg/kg TID) starting on day 12 in the morning and continued TID at approximately 6 hours intervals. The last dose was administered on day 14 one hour prior to challenge. The total number of doses were 8 doses or a total of […] hBD-2. Mice were then intranasally (IN) challenged with HDM on day 14 (HDM 25 μg in 50 μL of saline).
Lung function: Starting 48 hours after HDM challenge, measurements of lung resistance and lung compliance were carried out after methacholine challenge (3.125 MCH1; 6.25 MCH2; 12.5 MCH3 and 25 mg/mL MCH4) by anaesthetized, cannulated mice using DSI's Buxco Finepoint RC system. Data are represented as airway resistance at 10 mg/kg methacholine and as dose responsive curves.

[2] = system: IL-4, IL-5, IL-8 (KC), IL-9 and IL-13 in lung tissue homogenates; assay: Cytokine ELISA in lung tissue homogenates, HDM asthma model (Example 3); assay type: in vivo, BALB/c mice
Method: Treatment regime: Female 7-10 weeks old BALB/c mice randomly allocated into 4 study groups one day prior to study start were subcutaneously (SC) sensitized to house dust mite (100 μg HDM in 200 μL saline plus Freund's complete adjuvant in 0.9% saline). Mice were intranasally (IN) challenged with HDM on day 14 (HDM 25 μg in 50 μL of saline). hBD-2 was administered IN or orally (0.4 mg/kg TID IN; 0.4 mg/kg TID orally, 50 μL phosphate buffered saline) on day 14. The initial dose was administered 60 minutes prior to challenge, and the subsequent doses approximately 6 hours apart.
Lung tissue sampling: Lungs were removed from the thorax, snap frozen in liquid nitrogen and stored frozen at −80 degrees Celsius until analysis of cytokine concentration of IL-4, IL-5, IL-8 (KC), IL-9 and IL-13 by ELISA.
The lungs were exposed and excised by gently opening the thorax and by cutting down either side of the sternum and ribs and trimming back. Lungs from first 6 animals per group were removed from thorax, snap frozen in liquid nitrogen and stored frozen at −80° C. until analysis of cytokine concentration by ELISA.

[3] = system: microbiota of the intestine; assay: 16S microbiota analysis, interventional defensin treatment in diet-induced obese mice (Example 11); assay type: in vivo; conditions: intervention
From the text: The experiment elucidates the effect of hBD2 and HD5 on the microbiota in diet-induced obese mice. A run-in period of 13 weeks where mice were fed a very HFD (60% energy from fat) preceded the intervention. Only mice meeting the criteria of a minimum of 12 gram weight gain (approximately 50% of initial bodyweight) during the run-in period were included in the final analyses. […] They were exposed to all experimental tests, but excluded from the analyses.
Before the intervention all mice were MR scanned. Cages of mice were allocated to experimental groups based on their fat mass. All subsequent measures were paired with data from the same mouse before the intervention. A LFD (low fat diet) reference group was running in parallel. As controls for the intervention 2 additional groups were included: 1 very HFD and 1 LFD. Experimental mice stayed on the very HFD during the intervention. The mice were on the experimental diet for 10 weeks. They were co-housed throughout the experiment, 4 mice per cage, 3 cages per group. All tests ran over 3 days, 1 cage per group per day.
Microbial analyses were carried out to study the microbiota of the intestine. Longitudinal 16S characterization was conducted on 4 paired samples from 60 mice, 240 samples in total. Each mouse was sampled prior to diet change, 1 week post diet change, 4 weeks post diet change and at termination, thus ensuring a thorough characterization of the faecal microbiota as a result of defensin treatment.

[4] = Pharmacokinetics after single oral gavage; assay type: in vivo, NMRI mice; conditions: oral 4 mg/kg in mice
Method: Pharmacokinetic study to establish pharmacokinetic profile of hBD-2 following single oral gavage of 4 mg/kg administration to NMRI mice.
21 female NMRI mice were dosed by oral gavage 5 ml/kg using a gavage tube and a 1 ml syringe according to the individual body weight obtained on the day of dosing. Urine was strived sampled at random time points by gently massaging the inguinal area of the abdomen. The first blood sample was taken using a submandibular sampling method. The second blood sample was collected from Isoflurane anaesthetized mice. Intestinal samples were taken after euthanasia. The abdomen of each mouse was opened and three sections of the intestines were sampled.

[5] = system: murine house dust mite/Freunds complete adjuvant driven model of allergic asthma; assay: Total and differential cell counts in BALF, HDM asthma model (Example 2); assay type: in vivo, BALB/c mice
Method: Female 7-10 weeks old BALB/c mice were randomly allocated into 7 study groups one day prior to study start and subcutaneously (SC) sensitized to house dust mite (100 μg HDM in 200 μL saline plus Freunds complete adjuvant in 0.9% saline). Mice were then intranasally (IN) challenged with HDM on day 14 (HDM 25 μg in 50 μL of saline). […] The initial dose was administered 60 minutes prior to challenge, and the subsequent doses approximately 6 hours apart. Airway inflammation: At 48 hours post challenge, bronchoalveolar lavage was performed washing the lungs with 3 volumes of cold PBS (0.4; 0.3 and 0.3 mL, total 1 mL). Total and differential leucocyte cell counts were determined on an automated haematological analyser Sysmex XT-2000iV.

[6] = system: TNF-α, IL-4, IL-5, IL-6, IL-9, IL-13 and IL-33 in lung homogenate; assay: Cytokine ELISA in lung homogenate, prophylactic treatment in HDM asthma model (Example 9); assay type: in vivo, BALB/c mice
Method: as §1
Lung sampling for cytokine analysis: After completion of every BAL, lungs were removed from the thorax, snap frozen in liquid nitrogen and stored frozen at −80 degrees Celsius until analysis of cytokine concentration of TNF-α, IL-4, IL-5, IL-6, IL-9, IL-13 and IL-33 in lung homogenate by ELISA.

[7] = prophylactic intranasal 0.4 mg/kg TID day 12 to day 14
[8] = prophylactic oral 0.4 mg/kg TID day 12 to day 14
[9] = prophylactic intranasal, not statistically significantly different from the control

Sequence: GIGDPVTCLKSGAICHPVFCPRRYKQIGTCGLPGTKCCKKP (disulfide 8-37, 15-30, 20-38 (inferred)) [hBD-2, human beta defensin 2]
- decrease of pulmonary compliance [1, 7]: inhibiting
- increase of airway resistance [1, 7]: inhibiting
- decrease of pulmonary compliance [1, 8]: inhibiting
- increase of airway resistance [1, 8]: inhibiting
- IL-4 level in lung tissue homogenates ([2]; intranasal 0.4 mg/kg TID): significant effects
- IL-5 level in lung tissue homogenates ([2]; intranasal 0.4 mg/kg TID): significant effects
- IL-9 level in lung tissue homogenates ([2]; intranasal 0.4 mg/kg TID): significant effects
- IL-4 level in lung tissue homogenates ([2]; oral 0.4 mg/kg TID): significant effects
- IL-5 level in lung tissue homogenates ([2]; oral 0.4 mg/kg TID): significant effects
- IL-9 level in lung tissue homogenates ([2]; oral 0.4 mg/kg TID): significant effects
- abundance of Alloprevotella in the colon ([3]; HD5 p<0.02): no influence
- relative abundance of Bifidobacteriaceae in the small intestine ([3]; hBD2 p<0.0001): dramatically and statistically significant increased
- relative abundance of Bifidobacteriaceae in the colon ([3]; p<0.04): dramatically and statistically significant increased
- systemic availability after oral dosing [4]: not systemically available
- neutrophil counts in BALF ([5]; intranasal 0.4 mg/kg/day TID): significantly inhibited
- neutrophil counts in BALF ([5]; intranasal 1.7 mg/kg/day TID): significantly inhibited
- IL-4 in lung homogenate [6, 9]: trend towards lowering
- IL-5 in lung homogenate [6, 9]: trend towards lowering
- IL-6 in lung homogenate [6, 9]: trend towards lowering
- IL-9 in lung homogenate [6, 9]: trend towards lowering
- IL-13 in lung homogenate [6, 9]: trend towards lowering
- TNF-α in lung homogenate [6, 9]: trend towards lowering
- cytokine concentrations in lung tissue homogenates (TNF-α, IL-4, IL-5, IL-6, IL-9 and IL-13) ([6]; prophylactic oral administration): complete normalization
